Values quoted from earlier work as cited in US6943193B1, “Method for treating sexual dysfunction” (priority 2003, dated 2005).

Tested on: erectile dysfunction

## CCCc1nn(C)c2c(=O)[nH]c(-c3cc(S(=O)(=O)N4CCN(C)CC4)ccc3OCC)nc12 [sildenafil]
Clinical practice
  efficacy: ~50%
Initial reports
  success rates: ≤ 85%
